Reference: PMC7662385, “New Fluorene Derivatives from Dendrobium gibsonii and Their α-Glucosidase Inhibitory Activity” (Molecules, 2020)
Like-named read-outs stand apart in the source and are kept apart here.

Key:
α-glucosidase [1] = assay: α-glucosidase inhibition assay (p-nitrophenol release from p-nitrophenol-α-D-glucopyranoside); assay type: biochemical, Yeast; details: two-fold serial dilution; acarbose positive control; read-out: α-glucosidase inhibitory activity IC50
Protocol: In this study, each compound was initially tested at 100 μg/mL.
(§1) The α-glucosidase inhibition assay was performed according to previous protocols. The assay was based on the release of p-nitrophenol from p-nitrophenol-α-D-glucopyranoside (substrate). The test samples were prepared by dissolving in 50% DMSO. […] The sample solution (10 μL) and 0.1 U/mL α-glucosidase (40 μL) in phosphate buffer (pH 6.8) were added to a 96-well plate. The mixture was preincubated at 37 °C for 10 min before adding 2 mM p-nitrophenol-α-D-glucopyranoside (50 μL). Then, the reaction was incubated again at 37 °C for 20 min. Finally, 1 M Na2CO3 solution (100 μL) was added to stop the reaction. The absorbance of the mixture was determined using a microplate reader at 405 nm.

α-glucosidase [2] = assay: α-glucosidase enzyme kinetic study (Lineweaver–Burk and secondary plots); assay type: biochemical, Yeast; details: for mode of α-glucosidase inhibition: Lineweaver–Burk plots
Protocol: Further investigation was conducted on compound 2 to study its kinetic properties with regard to the enzyme α-glucosidase using varying concentrations of the substrate.
as §1
An enzyme kinetic study was conducted based on the α-glucosidase assay as mentioned above. […] The inhibition mode was determined by double-reciprocal Lineweaver–Burk plot (1/V vs. 1/[S]). In order to estimate the Ki value, slopes of double-reciprocal lines were used to construct a secondary plot, and the Ki was calculated from the line equation of the plot.

IC50 (α-glucosidase [1])	Ki (α-glucosidase [2]; from secondary plot of slopes of double-reciprocal lines)	Vmax (α-glucosidase [2]; inhibitor dose 11 μM, PNPG 0.25 to 2 mM)	Km (α-glucosidase [2]; inhibitor dose 11 μM, PNPG 0.25 to 2 mM, read-out: Km)	Vmax (α-glucosidase [2]; inhibitor dose 22 μM, PNPG 0.25 to 2 mM)	Km (α-glucosidase [2]; inhibitor dose 22 μM, PNPG 0.25 to 2 mM, read-out: Km)	Km (α-glucosidase [2]; with changing inhibitor concentration, dose not given, read-out: Km as stated in text)	SMILES	mode of α-glucosidase inhibition (α-glucosidase [2])	Vmax (α-glucosidase [2]; inhibitor dose 465 μM, PNPG 0.25 to 2 mM)	Km (α-glucosidase [2]; inhibitor dose 465 μM, PNPG 0.25 to 2 mM, read-out: Km)	Vmax (α-glucosidase [2]; inhibitor dose 930 μM, PNPG 0.25 to 2 mM)	Vmax as stated in text (α-glucosidase [2]; with changing inhibitor concentration, dose not given)
19.8 ± 0.9 µM	20.4 µM	0.086 ∆OD/min	1230 µM	0.052 ∆OD/min	1190 µM	1550 µM	COc1cc2c3c(c1O)CCc1cc(OC)c(OC)c(c1-3)OC21c2cccc(O)c2-c2c1cc(OC)c(O)c2OC (centres unmarked) [Compound 2, dendrogibsol]	noncompetitive				
185 ± 6.9 µM							COc1cc(O)c2c(c1)CCc1cc(O)ccc1-2 [Compound 7, lusianthridin]					
							C[C@H]1O[C@H](O[C@H]2[C@H](O)[C@@H](O)[C@@H](O[C@H]3[C@H](O)[C@@H](O)C(O)O[C@@H]3CO)O[C@@H]2CO)[C@H](O)[C@@H](O)[C@@H]1N[C@H]1C=C(CO)[C@@H](O)[C@H](O)[C@H]1O (some centres unmarked) [acarbose, reference compound]	competitive	0.10 ∆OD/min	6740 µM	0.11 ∆OD/min	0.11 ∆OD/min
